In patent publication US20240262803A1, “COMPOUNDS, COMPOSITIONS AND METHODS OF TREATING DISORDERS” (Chungdu Anticancer Bioscience Ltd, priority 2021, published 2024):
Read-outs that look alike come from different tables or passages of the source.

Assays:
Assay type in all cases: cell-based
[1] = tested on: breast cancer cell line MDA-MB-231; assay: Minimal effective concentration that elicits polyploidy, MDA-MB-231; conditions: Homo sapiens, read-out: MECP: Minimal effective concentration that elicits polyploidy
SW480 = assay: Minimal effective concentration that elicits polyploidy, SW480; conditions: Homo sapiens, read-out: MECP: Minimal effective concentration that elicits polyploidy
[2] = tested on: colon cancer cell line SW460; assay: MTT assay of cellular proliferation, SW460; conditions: Homo sapiens, SW480; read-out: EC50: Concentration that inhibits 50% of proliferation
Procedure: (§1) Six lung cancer cell lines (NCI-H23, NCI-H460, NCI-H596, NCI-H2170, Calu-6 and A549), two colon cancer cell lines (HCT116 and SW460), one breast cancer cell line MDA-MB-231, one gastric cancer cell line NCI-N87, one prostate cancer cell line DU145, one cervical cancer cell line Hela, and one glioblastoma cell line T98G were obtained from ATCC. The T2 HCC cell line was derived from a mouse liver cancer model initiated by a transgene of MYC (Reference). All cell lines were cultured in DMEM (Gibco, Cleveland, TN, USA) supplemented with 5% fetal bovine serum (Gibco), penicillin (100 U/mL)-streptomycin (100 μg/mL) (Gibco, Cat. No. 15140-122), 2 mM L-glutamine (Gibco, 200 mM solution, Cat. No. 25030081), and 1 mM sodium pyruvate (Gibco, 100 mM solution, Cat. No. 11360070) at 37° C. in a humidified incubator that was maintained at 5% CO2.
(§2) The MTT assay measures cellular metabolic activity as a proxy for cell viability and involves the conversion of the water-soluble yellow dye MTT [3-(4,5-dimethylthiazol-2-yl)-2,5-diphenyltetrazolium bromide] into an insoluble purple formazan by the action of mitochondrial reductase. Formazan is then solubilized and its concentration is determined by measuring the optical density (OD) value at a wavelength of 570 nm. The value is in proportional to the number of live cells with excellent linearity up to ˜10^6 cells per well. The MTT assay was used to determine the EC50 value, the concentration of a compound that leads to 50% inhibition of cellular proliferation. Briefly, cells were split when growing to the mid-Log phase. Cells in 100 μL of culture medium were seeded into each well of 96-well microplates and cultivated for 15˜24 hours to reach a confluence of 20˜30% and were then exposed to drugs at concentrations ranging from 1 nM to 10 μM. At the endpoint, 20 μL of a MTT stock solution in DMSO (5 mg/mL) was added to each well that contains […] of DMEM. The microplates were left in the cell culture incubator for 3˜4 h before subjected to solubilization and determination of formazan at A570 in a microplate reader (BioTek ELX808iu). […] Therefore, these compounds might hold a broad utility in the treatment of a large variety of human malignancies.

[3] = tested on: lung cancer cell line NCI-H23; assay: MTT assay of cellular proliferation, NCI-H23; conditions: Homo sapiens, read-out: EC50: Concentration that inhibits 50% of proliferation
Procedure: as §1, §2

[4] = tested on: cervical cancer cell line Hela; assay: MTT assay of cellular proliferation, Hela; conditions: Homo sapiens, read-out: EC50: Concentration that inhibits 50% of proliferation
Procedure: as §1, §2

[5] = tested on: lung cancer cell line A549; assay: MTT assay of cellular proliferation, A549; conditions: Homo sapiens, read-out: EC50: Concentration that inhibits 50% of proliferation
Procedure: as §1, §2

[6] = tested on: colon cancer cell line HCT116; assay: Minimal effective concentration that elicits polyploidy, HCT116; conditions: Homo sapiens, HCT-116, read-out: MECP: Minimal effective concentration that elicits polyploidy
[7] = tested on: gastric cancer cell line NCI-N87; assay: MTT assay of cellular proliferation, NCI-N87; conditions: Homo sapiens, read-out: EC50: Concentration that inhibits 50% of proliferation
Procedure: as §1, §2

[8] = tested on: cervical cancer cell line Hela; assay: Minimal effective concentration that elicits polyploidy, Hela; conditions: Homo sapiens, read-out: MECP: Minimal effective concentration that elicits polyploidy
RPEMYC^H2B-GFP cells [9] = assay: Mechanism-informed phenotypic screening assay (mitotic arrest, polyploidy; GE IN-Cell Analyzer 2000); conditions: 20 nM to 20 μM, 24, 48 or 72 hours, read-out: Min. Effective conc. for polyploidy (≥5%)
Procedure: We have Previously Developed a Mechanism-Informed Phenotypic Screening Assay to identify novel antimitotic agents (Li et al. 2019). Equipped with a prior understanding of the versatile functions of the chromosomal passenger protein (CPP) complex in orchestrating karyokinesis and cytokinesis, the screening assay is to score for phenotypes typically seen when the CPP complex is disabled. Specifically, the parameters for a positive hit are a temporary elevation of mitotic index (MI) at 24 hours of drug treatment and an accumulation of polyploid cells at 48 hours of drug treatment, indicative of mitotic arrest and cytokinetic failure respectively. These parameters exclude compounds that elicit only a prolonged arrest of cells in mitosis, a phenotype typically provoked by spindle toxins. The screening procedure is briefly summarized here. RPEMYC^H2B-GFP cells engineered to express a Histone 2B-EGFP fusion protein were passaged as batches of 96-well plates, 18-24 hours before exposure to the chemical compounds of the present disclosure at concentrations from 20 nM to 20 μM. At 24, 48 or 72 hours after initiation of treatment, cells were analyzed for either an arrest in mitosis or a change in DNA content by GE IN-Cell Analyzer 2000. As set forth in table 2 below, a value of greater than or equal to […] and less than or equal to 1.0 μM is marked e “A”; a value greater than […] and less than or equal to 10.0 μM is marked “B”; a value greater than 10.0 μM and less than or equal to 30.0 μM is marked “C”; and a value greater than 30.0 μM is marked “D.”

[10] = tested on: colon cancer cell line HCT116; assay: MTT assay of cellular proliferation, HCT116; conditions: Homo sapiens, HCT-116, read-out: EC50: Concentration that inhibits 50% of proliferation
Procedure: as §1, §2

[11] = tested on: lung cancer cell line A549; assay: Minimal effective concentration that elicits polyploidy, A549; conditions: Homo sapiens, read-out: MECP: Minimal effective concentration that elicits polyploidy
[12] = tested on: liver cancer cell line T2 HCC; assay: MTT assay of cellular proliferation, T2 HCC; conditions: Mus musculus, read-out: EC50: Concentration that inhibits 50% of proliferation
Procedure: as §1, §2

[13] = tested on: lung cancer cell line NCI-H23; assay: Minimal effective concentration that elicits polyploidy, NCI-H23; conditions: Homo sapiens, read-out: MECP: Minimal effective concentration that elicits polyploidy
[14] = tested on: liver cancer cell line T2 HCC; assay: Minimal effective concentration that elicits polyploidy, T2 HCC; conditions: Mus musculus, read-out: MECP: Minimal effective concentration that elicits polyploidy
RPEMYC^H2B-GFP cells [15] = assay: Mechanism-informed phenotypic screening assay (mitotic arrest, polyploidy; GE IN-Cell Analyzer 2000); conditions: 20 nM to 20 μM, 24, 48 or 72 hours, read-out: Mitotic Arrest (≥5%)
[16] = tested on: gastric cancer cell line NCI-N87; assay: Minimal effective concentration that elicits polyploidy, NCI-N87; conditions: Homo sapiens, read-out: MECP: Minimal effective concentration that elicits polyploidy
[17] = tested on: breast cancer cell line MDA-MB-231; assay: MTT assay of cellular proliferation, MDA-MB-231; conditions: Homo sapiens, read-out: EC50: Concentration that inhibits 50% of proliferation
Procedure: as §1, §2

| SMILES | minimal effective concentration (RPEMYC^H2B-GFP cells [9]) | minimal effective concentration (RPEMYC^H2B-GFP cells [15]) | further results |
| --- | --- | --- | --- |
| COc1cc(Oc2ncccc2-c2ccncc2)cc(C(=O)O)c1 [Compound 3, 3-([3,4′-bipyridin]-2-yloxy)-5-methoxybenzoic acid] | > 30 µM | > 30 µM | minimal effective concentration [1]: 0.001 to 1 µM; minimal effective concentration (SW480): 0.001 to 1 µM; EC50 [2]: 1 to 1000 nM; EC50 [3]: 1 to 1000 nM; EC50 [4]: 1 to 1000 nM; EC50 [5]: 1 to 1000 nM; minimal effective concentration [6]: 0.001 to 1 µM; EC50 [7]: 1 to 1000 nM; minimal effective concentration [8]: 0.001 to 1 µM; EC50 [10]: 1 to 1000 nM; minimal effective concentration [11]: 0.001 to 1 µM; EC50 [12]: 1 to 1000 nM; minimal effective concentration [13]: 0.001 to 1 µM; minimal effective concentration [14]: 0.001 to 1 µM; minimal effective concentration [16]: 0.001 to 1 µM; EC50 [17]: 1 to 1000 nM |
| COC(=O)c1cc(OC)cc(Oc2nccnc2-c2ccncc2)c1 [Compound 17] | 1 µM | 1 µM | minimal effective concentration [1]: 0.001 to 1 µM; EC50 [3]: 1 to 1000 nM; EC50 [4]: 1 to 1000 nM; EC50 [5]: 10000 to 30000 nM; minimal effective concentration [6]: 0.001 to 1 µM; EC50 [7]: 1 to 1000 nM; minimal effective concentration [8]: 0.001 to 1 µM; EC50 [10]: 1 to 1000 nM; minimal effective concentration [11]: 0.001 to 1 µM; EC50 [12]: 1 to 1000 nM; minimal effective concentration [13]: 0.001 to 1 µM; minimal effective concentration [14]: 0.001 to 1 µM; minimal effective concentration [16]: 0.001 to 1 µM; EC50 [17]: 1 to 1000 nM |
| CCOCCOc1cc(-c2cccnc2Oc2cc(NC(C)=O)cc(OC)c2)ccn1 [Compound 87, N-(3-((2′-(2-ethoxyethoxy)-[3,4′-bipyridin]-2-yl)oxy)-5-methoxyphenyl)acetamide] | 1 µM | 1 µM | – |
| CNC(=O)c1cc(Oc2ncccc2-c2ccnc(C)c2)cc(-n2cccn2)c1 [Compound 88, N-methyl-3-((2′-methyl-[3,4′-bipyridin]-2-yl)oxy)-5-(1H-pyrazol-1-yl)benzamide] | 1 µM | 1 µM | – |
| CNC(=O)c1cc(Oc2ncccc2-c2ccnc(C)c2)cc(-c2cnn(C)c2)c1 [Compound 89, N-methyl-3-(1-methyl-1H-pyrazol-4-yl)-5-((2′-methyl-[3,4′-bipyridin]-2-yl)oxy)benzamide] | 1 µM | 1 µM | – |
| CNC(=O)c1cc(Oc2ncccc2-c2ccncc2)cc(-c2cnn(C)c2)c1 [Compound 90, 3-([3,4′-bipyridin]-2-yloxy)-N-methyl-5-(1-methyl-1H-pyrazol-4-yl)benzamide] | 1 µM | 1 µM | – |
| CNC(=O)c1cc(OC)cc(Oc2ncccc2-c2cncnc2)c1 [Compound 91, 3-methoxy-N-methyl-5-((3-(pyrimidin-5-yl)pyridin-2-yl)oxy)benzamide] | 1 µM | 1 µM | – |
| CNC(=O)c1cc(OC)cc(Oc2ncccc2-c2cccc(F)c2)c1 [Compound 92, 3-((3-(3-fluorophenyl)pyridin-2-yl)oxy)-5-methoxy-N-methylbenzamide] | 1 µM | 1 µM | – |
| COc1cc(Oc2ncccc2-c2ccncc2)cc(O[C@H]2CCOC2)c1 [Compound 94, (S)-2-(3-methoxy-5-((tetrahydrofuran-3-yl)oxy)phenoxy)-3,4′-bipyridine] | 1 µM | 1 µM | – |
| COc1cc(Oc2ncccc2-c2ccnc(C)c2)cc(O[C@H]2CCOC2)c1 [Compound 95, (S)-2-(3-methoxy-5-((tetrahydrofuran-3-yl)oxy)phenoxy)-2′-methyl-3,4′-bipyridine] | 1 µM | 1 µM | – |
| CNC(=O)c1cc(Oc2ncccc2-c2ccnc(C)c2)cc(OC2CCOC2)c1 (centres unmarked) [Compound 96, N-methyl-3-((2′-methyl-[3,4′-bipyridin]-2-yl)oxy)-5-((tetrahydrofuran-3-yl)oxy)benzamide] | 1 µM | 1 µM | – |
| CNC(=O)c1cc(OC)cc(Oc2ncccc2-c2cc(C)ncn2)c1 [Compound 97, 3-methoxy-N-methyl-5-((3-(6-methylpyrimidin-4-yl)pyridin-2-yl)oxy)benzamide] | 1 µM | 1 µM | – |
| COc1cc(Oc2ncccc2-c2ccnc(C)c2)cc(C(=O)NC2CC2)c1 [Compound 98, N-cyclopropyl-3-methoxy-5-((2′-methyl-[3,4′-bipyridin]-2-yl)oxy)benzamide] | 1 µM | 1 µM | – |
| CNC(=O)c1cc(OC)cc(Oc2ncccc2-c2cc(C)nc(C)c2)c1 [Compound 99, 3-((2′,6′-dimethyl-[3,4′-bipyridin]-2-yl)oxy)-5-methoxy-N-methylbenzamide] | 1 µM | 1 µM | – |
| COc1cc(Oc2ncccc2-c2ccncc2)cc(C(=O)NC2CC2)c1 [Compound 100, 3-([3,4′-bipyridin]-2-yloxy)-N-cyclopropyl-5-methoxybenzamide] | 1 µM | 1 µM | – |
| CNC(=O)c1cc(Oc2ncccc2-c2ccncc2)cc(OC2CCOC2)c1 (centres unmarked) [Compound 101, 3-([3,4′-bipyridin]-2-yloxy)-N-methyl-5-((tetrahydrofuran-3-yl)oxy)benzamide] | 1 µM | 1 µM | – |
